In the experiment the test system is C57BL/6JNarl mice. Put plainly: Hepatic triglycerides after 7 weeks of lactoferrin, chromium or lactoferrin+chromium in high-fat-diet mice. Particulars: 10 mice in each group. The format is in vivo. How it is done: Male C57BL/6JNarl mice (n=70) fed with high fat diet (high-fat Rodent TestDiet, PMI International Inc., MO, USA; 67% of calories provided by fat), age 8 weeks, are randomly divided into the control group, the low-dose lactoferrin group (NZMP lactoferrin, New Zealand, 40 mg/kg BW/day), the high-dose lactoferrin group (80 mg/kg BW/day), the low-dose chromium group (CrCl3·6H2O, Sigma, Cr^+3 40 μg/kg BW/day), the high dose chromium group (Cr^+3 80 μg/kg BW/day), the low-dose lactoferrin+chromium group (lactoferrin 40 mg/kg BW/day+Cr^+3 40 μg/kg BW/day), and the high-dose lactoferrin+chromium group (lactoferrin 80 mg/kg BW/day+Cr^+3 80 μg/kg BW/day) (10 mice in each group). After supplementation for 7 weeks, the C57BL/6JNarl mice are sacrificed and their livers are harvested. Then, the level of hepatic triglycerides is analyzed. […] However, no significant difference between the other groups is found.

Regarding `O.O.O.O.O.O.[Cl][Cr]([Cl])[Cl]` [chromium, CrCl3·6H2O], where the note is “High-dose: lactoferrin 80 mg/kg BW/day and/or Cr+3 80 μg/kg BW/day”, the “Hepatic triglycerides, High-dose” value came to 19.0 ± 5.7 μ mol/g liver. Moreover, the “Hepatic triglycerides, Low-dose” value (Low-dose: lactoferrin 40 mg/kg BW/day and/or Cr+3 40 μg/kg BW/day) turned out to be 18.4 ± 8.1 μ mol/g liver.

These data come from patent publication US20120064176A1, “COMPOSITION FOR PREVENTING AND TREATING FATTY LIVER” (National Chung Hsing University, priority 2008, published 2012).
